For assay [1], the system named is Ehrlich ascites tumour, ELD hyperdiploid (46 chromosomes). Nature of the assay: Ehrlich ascites tumour test (LD50, ED50, therapeutic index). Format: in vivo, SPF NMRI mice. The settings on record: additional compounds, result in words. The source says: The high activity against tumours is further illustrated in these experiments by comparisons with known antitumour agents used in the therapy. The therapeutic indexes (T.I.), i.e. the ratios LD50/ED50, are in all comparisons much more favourable with the compounds of the present invention.
LD50 is the dose that caused a 50 percent lethality of the animals, ED50 is the dose that caused a 50 percent reduction of tumour size.
The experimental design and the interpretation of the results have been in accordance with the standards set by the CCNSC (Cancer Chemotherapy Reports, January 1959 and December 1962), and by the DR&D (Cancer Chemotherapy Reports, September 1972, Vol. 3, No. 2).
The way of administration is by the intraperitoneal route (i.p.) in each case.
Ehrlich ascites tumour, ELD hyperdiploid (46 chromosomes)
Experimental animals: SPF NMRI mice.
Tumour implant: 2 × 10^6 tumour cells i.p.
Therapy: One injection i.p. on the day following implantation.
Termination: The animals are killed on the 8th day.
Evaluation: Weights of tumours of test animals compared with those of control animals.

Assay [2] concerns Hepatoma AH 130. In words: in vivo. The arrangement: species or system SPF Wistar rats. Particulars: additional compounds, result in words. The procedure, abridged:
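Therapeutic index (LD50/ED50) was derived from tumour weight against controls at day-8 sacrifice, with ED50 the dose giving 50% tumour reduction. Rats (SPF Wistar) bore 5 × 10^6 hepatoma cells implanted intraperitoneally. A single i.p. injection followed on the day after implantation.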

In the case of `C[C@]12CC[C@@H](OC(=O)N(CCCl)N=O)C[C@@H]1CC[C@@H]1[C@@H]2CC[C@]2(C)[C@@H](OP(=O)(O)O)CC[C@@H]12` [androstanediol-3α-N-(2-chloroethyl)-N-nitroso carbamate-17β-dihydrogen phosphate], the anti-tumor activity result in assay [1] and in assay [2] was “exhibit anti-tumor activity” each time.

Turning to `C[C@]12CC[C@@H]3c4ccc(OC5CCCC5)cc4CC[C@H]3[C@@H]1CC[C@@H]2OC(=O)N(CCCl)N=O` [estradiol-17β-N-(2-chloroethyl)-N-nitroso carbamate-3-cyclopentyl ether], the anti-tumor activity result in assay [1] and in assay [2] was “exhibit anti-tumor activity” in each case.

On to `C#C[C@]1(OC(=O)N(CCCl)N=O)CC[C@H]2[C@@H]3CCC4=CC(=O)CC[C@@H]4[C@H]3CC[C@@]21C` [17α-ethynyl-19-nortestosterone-17β-N-(2-chloroethyl)-N-nitroso carbamate], for which the anti-tumor activity result in assay [1] and in assay [2] was “exhibit anti-tumor activity” in each case.

On to `C[C@]12CC[C@@H]3c4ccc(OC(=O)N(CCCl)N=O)cc4CC[C@H]3[C@@H]1CC[C@@H]2OC(=O)N(CCCl)N=O` [estradiol-3,17β-bis/N-(2-chloroethyl)-N-nitroso carbamate/], for which the anti-tumor activity entry in assay [1] and in assay [2] was “exhibit anti-tumor activity” throughout.

On to `CC(C)CCC[C@@H](C)[C@H]1CC[C@H]2[C@@H]3CC=C4C[C@@H](OC(=O)N(C(=O)N(CCCl)N=O)C5CCCCC5)CC[C@]4(C)[C@H]3CC[C@]12C` [cholesterol-3β-/N^2-cyclohexyl-N^4-(2-chloroethyl)-N^4-nitroso allophanate/], for which the anti-tumor activity entry in assay [1] and in assay [2] was “exhibit anti-tumor activity” in each case.

As to `C[C@]12CC[C@H](OC(=O)N(CCF)N=O)CC1=CC[C@@H]1[C@@H]2CC[C@]2(C)C(=O)CC[C@@H]12` [dehydroepiandrosterone-3β-N-(2-fluoroethyl)-N-nitroso carbamate], the anti-tumor activity result in assay [1] and in assay [2] was “exhibit anti-tumor activity” each time.

Turning to `C[C@]12C=CC(=O)C=C1CC[C@@H]1[C@@H]2C(=O)C[C@@]2(C)[C@H]1CC[C@]2(O)C(=O)COC(=O)N(CCCl)N=O` [prednisone-21-N-(2-chloroethyl)-N-nitroso carbamate], the anti-tumor activity result in assay [1] and in assay [2] was “exhibit anti-tumor activity” throughout.

On to `CC(=O)Oc1ccc2c(c1)CC[C@@H]1[C@@H]2CC[C@@]2(C)[C@H]1C[C@@H](OC(C)=O)[C@@H]2OC(=O)N(C(=O)N(CCCl)N=O)C1CCCCC1` [estriol-3,16α-diacetate-17β-/N^2-cyclohexyl-N^4-(2-chloroethyl)-N^4-nitroso allophanate/], for which the anti-tumor activity result in assay [1] and in assay [2] was “exhibit anti-tumor activity” each time.

Turning to `C[C@]12CC[C@H](OC(=O)NC(=O)N(CCCl)N=O)CC1=CC[C@@H]1[C@@H]2CC[C@]2(C)C(=O)CC[C@@H]12` [dehydroepiandrosterone-3β-/N^4-(2-chloroethyl)-N^4-nitroso allophanate/], the anti-tumor activity entry in assay [1] and in assay [2] was “exhibit anti-tumor activity” throughout.

Take `C[C@]12CC[C@H]3[C@@H](CCC4=CC(=O)CC[C@@]43C)[C@@H]1CC[C@@H]2OC(=O)N(C(=O)N(CCCl)N=O)C1CCCCC1` [testosterone-17β-/N^2-cyclohexyl-N^4-(2-chloroethyl)-N^4-nitroso allophanate/]: the anti-tumor activity result in assay [1] and in assay [2] was “exhibit anti-tumor activity” each time.

For `CCCOc1ccc(CCC(=O)O[C@H]2CC[C@H]3[C@@H]4CCc5cc(OC(=O)N(CCCl)N=O)ccc5[C@H]4CC[C@]23C)cc1` [estradiol-3-N-(2-chloroethyl)-N-nitroso carbamate-17β-(p-propoxyphenyl-propionate)], the anti-tumor activity entry in assay [1] and in assay [2] was “exhibit anti-tumor activity” each time.

With `C[C@]12CC[C@@H](OC(=O)N(CCCl)N=O)C[C@@H]1CC[C@@H]1[C@@H]2CC[C@]2(C)[C@@H](O)CC[C@@H]12` [androstanediol-3α-N-(2-chloroethyl)-N-nitroso carbamate], the anti-tumor activity entry in assay [1] and in assay [2] was “exhibit anti-tumor activity” each time.

Consider `C#C[C@]1(OC(C)=O)CC[C@H]2[C@@H]3CCc4cc(OC(=O)N(CCCl)C(=O)N(CCCl)N=O)ccc4[C@H]3CC[C@@]21C` [17α-ethynylestradiol-17β-acetate-3-/N^2,N^4-bis(2-chloroethyl)-N^4-nitroso allophanate/], for which the anti-tumor activity entry in assay [1] and in assay [2] was “exhibit anti-tumor activity” throughout.

On to `C[C@]12CC[C@H](OC(=O)N(C(=O)N(CCCl)N=O)C3CCCCC3)CC1=CC[C@@H]1[C@@H]2CC[C@]2(C)C(=O)CC[C@@H]12` [dehydroepiandrosterone-3β-/N^2-cyclohexyl-N^4-(2-chloroethyl)-N^4-nitroso allophanate/], for which the anti-tumor activity entry in assay [1] and in assay [2] was “exhibit anti-tumor activity” in each case.

For `CC[C@]1(OC(=O)N(CCCl)N=O)CC[C@H]2[C@@H]3CCC4=CC(=O)CC[C@@H]4[C@H]3CC[C@@]21C` [17α-ethyl-19-nortestosterone-17β-N-(2-chloroethyl)-N-nitroso carbamate], the anti-tumor activity result in assay [1] and in assay [2] was “exhibit anti-tumor activity” in each case.

As for `CC(=O)[C@@]1(OC(=O)N(CCCl)N=O)CC[C@H]2[C@@H]3CCC4=CC(=O)CC[C@]4(C)[C@H]3CC[C@@]21C` [17α-hydroxy-progesterone,17α-N-(2-chloroethyl)-N-nitroso carbamate], the anti-tumor activity entry in assay [1] and in assay [2] was “exhibit anti-tumor activity” each time.

As for `C[C@]12CC[C@@H]3c4ccc(OC(=O)N(CCCl)N=O)cc4CC[C@H]3[C@@H]1C[C@@H](OC(=O)CCC(=O)O)[C@@H]2OC(=O)CCC(=O)O` [estriol-3-N-(2-chloroethyl)-N-nitroso carbamate-16α,17β-bis-hemisuccinate], the anti-tumor activity entry in assay [1] and in assay [2] was “exhibit anti-tumor activity” each time.

For the molecule `COc1ccc(N(C(=O)O[C@H]2CC[C@@]3(C)C(=CC[C@@H]4[C@@H]3CC[C@]3(C)C(=O)CC[C@@H]43)C2)C(=O)N(CCCl)N=O)cc1` [dehydroepiandrosterone-3β-/N^2-(p-methoxyphenyl)-N^4-(2-chloroethyl)-N^4-nitroso allophanate/], the anti-tumor activity entry in assay [1] and in assay [2] was “exhibit anti-tumor activity” throughout.

For the molecule `CCCCN(C(=O)O[C@H]1CC[C@@]2(C)C(=CC[C@@H]3[C@@H]2CC[C@]2(C)C(=O)CC[C@@H]32)C1)C(=O)N(CCCl)N=O` [dehydroepiandrosterone-3β-/N^2-n-butyl-N^4-(2-chloroethyl)-N^4-nitroso allophanate/], the anti-tumor activity result in assay [1] and in assay [2] was “exhibit anti-tumor activity” in each case.

Turning to `C[C@]12CC[C@@H]3c4ccc(OC(=O)N(CCCl)N=O)cc4CC[C@H]3[C@@H]1CC[C@@H]2OP(=O)(O)O` [estradiol-3-N-(2-chloroethyl)-N-nitroso carbamate-17β-dihydrogen phosphate], the anti-tumor activity entry in assay [1] and in assay [2] was “exhibit anti-tumor activity” each time.

Take `C[C@]12CC[C@H]3[C@@H](CCC4=CC(=O)CC[C@@]43C)[C@@H]1CC[C@@H]2C(=O)COC(=O)N(CCCl)N=O` [deoxycorticosterone-21-N-(2-chloroethyl)-N-nitroso carbamate]: the anti-tumor activity result in assay [1] and in assay [2] was “exhibit anti-tumor activity” in each case.

Take `CC(=O)Oc1ccc2c(c1)CC[C@@H]1[C@@H]2CC[C@]2(C)[C@@H](OC(=O)N(C(=O)N(CCCl)N=O)C3CCCCC3)CC[C@@H]12` [estradiol-3-acetate-17β-/N^2-cyclohexyl-N^4-(2-chloroethyl)-N^4-nitroso allophanate/]: the anti-tumor activity result in assay [1] and in assay [2] was “exhibit anti-tumor activity” each time.

Regarding `C[C@]12CCC(=O)C=C1CC[C@@H]1[C@@H]2[C@@H](O)C[C@@]2(C)[C@H]1CC[C@]2(O)C(=O)COC(=O)N(CCCl)N=O` [hydrocortisone-21-N-(2-chloroethyl)-N-nitroso carbamate], the anti-tumor activity entry in assay [1] and in assay [2] was “exhibit anti-tumor activity” throughout.

As to `C[C@]12CC[C@H](OC(=O)N(C(=O)N(CCCl)N=O)c3ccc(Cl)cc3)CC1=CC[C@@H]1[C@@H]2CC[C@]2(C)C(=O)CC[C@@H]12` [dehydroepiandrosterone-3β-/N^2-(p-chlorophenyl)-N^4-(2-chloroethyl)-N^4-nitroso allophanate/], the anti-tumor activity entry in assay [1] and in assay [2] was “exhibit anti-tumor activity” throughout.
